Experimental data reported in paper PMC11172375, “Preclinical Evaluation of Biodistribution and Toxicity of [^211At]PSMA-5 in Mice and Primates for the Targeted Alpha Therapy against Prostate Cancer” (International Journal of Molecular Sciences, 2024).

Legend:
[1] = Necropsy and histological evaluation in mice; type: in vivo, ICR mice
Experimental: (§1) [^211At]PSMA-5 was administered intravenously to 25 mice, and its biodistribution was evaluated. For the toxicity study, three doses of [^211At]PSMA-5 (5, 12, and 35 MBq/kg, single dose) or saline were intravenously administered to 10 mice/group for the main evaluation point on day 1, and 5-mice/group for recovery evaluation on day 14, adhering to the ICH M3 (R2) guidelines. The dosage was determined based on our previous study using [^211At]NaAt. The monkeys were monitored for 24 h post-administration of [^211At]PSMA-5 (9 MBq/kg).
The brain, salivary gland, thyroid, heart, lungs, liver, kidney, adrenal gland, pancreas, spleen, thymus, stomach, small intestine, large intestine, bladder, prostate, and testes were collected on days 1 or 14 in mice and at 24 h in monkeys. Additionally, the pituitary gland, tongue, trachea, esophagus, mesenteric lymph nodes, epididymis, seminal vesicles, skin, mammary glands, spinal cord, bone, bone marrow (femur), eyeball, and optic nerve were collected from the mice. After fixation, paraffin sections were prepared and stained with hematoxylin and eosin (HE). All the specimens were evaluated by an expert in toxic pathology using an integrated fluorescence microscope (BZ-X810; Keyence Corporation. Osaka, Japan). In mice, the brain, salivary glands, heart, lungs, liver, gallbladder, spleen, kidneys, and testes were weighed according to ICH S4 guideline.

[2] = Biodistribution in ICR mice; type: in vivo
Experimental: as §1
(§2) Monkeys were anesthetized with intramuscular administration of ketamine (10 mg/kg) and xylazine (0.5 mg/kg) with isoflurane inhalation anesthesia. Planar and Single Photon Emission Computed Tomography (SPECT) imaging was performed in monkeys using a γ-camera system (E-cam, Siemens, Erlangen, Germany) immediately after administration to 1 h and at 3 and 24 h post-administration of [^211At]PSMA-5 (9 MBq/kg), targeting the X-rays emitted from the daughter nuclide ^211Po (energy window: 79 keV ± 20%). Subsequent image analysis was performed by setting the regions of interest using Osirix MD software (Version 13, Pixmeo SARL, Bernex, Switzerland) and PMOD software (Version 3.903, PMOD Technologies, Fällanden, Switzerland). Blood samples were obtained pre-administration and at 1, 3, and 24 h post-administration, followed by euthanasia via bloodletting at 24 h.
Urine and feces samples were collected at each time point. Following euthanasia, the brain, thyroid gland, salivary gland, lungs, heart, liver, kidney, spleen, pancreas, stomach, small intestine, large intestine, bladder, testes, and prostate tissues were collected. Organ weights and radiation doses were measured using a γ-counter (model: 2480Wizard2, PerkinElmer) and γ-camera system (E-cam) by appropriate cross-calibration.

[3] = TLC metabolite analysis of blood samples, mice; type: in vivo; conditions: plasma
Experimental: as §2
The blood samples were centrifuged at 3000 rpm for 5 min, and the resulting plasma was mixed with twice the volume of ethanol, then agitated vigorously. The supernatants were analyzed by thin-layer chromatography (TLC).

[4] = Blood chemistry analysis in monkeys; type: in vivo, cynomolgus monkeys; conditions: for ALB / ALP / ALT / AMY / AST / BUN / CK / CRE / K / LDH / Na / TBIL / TCHO / TG / TP / γ-GTP / GLU: monkeys, 9 MBq/kg i.v.
Experimental: as §1, §2
A blood cell counter was used for the measurements (CB-1010; ARKRAY, Inc., Kyoto, Japan). Red blood cell count (RBC), hemoglobin concentration (Hb), hematocrit (Ht), white blood cell count (WBC), platelet count (platelet), lymphocytes (%Lymph), monocytes (%Mon), and granulocytes (%Gra) were calculated. Plasma was analyzed using a dry clinical chemistry analyzer (Spotchem D-00 QR D-02; ARKRAY, Inc., Kyoto, Japan). The levels of aspartate aminotransferase (AST), alanine aminotransferase (ALT), gamma-glutamyl transpeptidase (γ-GTP), lactate dehydrogenase (LDH), alkaline phosphatase (ALP), creatine kinase (CK), amylase (AMY), total bilirubin (TBIL), creatinine (CRE), urea nitrogen (BUN), glucose (GLU), total protein (TP), albumin (ALB), total cholesterol (TCHO), triglyceride (TG), and electrolytes (Na, K, and Cl) were measured.

[5] = design: method as in PMID 35553387; conditions: LNCaP xenograft mice, 1MBq (53MBq/kg), 3 and 6 weeks after administration; cited from earlier work
[6] = mice, 12 MBq/kg, regarded as spontaneous lesion
[7] = 24 hrs, might be affected by hemolysis

O=C(O)CC[C@H](NC(=O)N[C@@H](CCCCNC(=O)[C@@H](Cc1ccc2ccccc2c1)NC(=O)c1ccc(CNC(=O)[C@@H](CCC(=O)O)NC(=O)[C@@H](CCC(=O)O)NC(=O)Cc2ccc([211At])cc2)cc1)C(=O)O)C(=O)O [[^211At]PSMA-5]
gross findings during necropsy ([1]; expert evaluation): no gross abnormalities beyond spontaneous lesions | histological changes in the thyroid, testes, and kidneys compared to the control group ([1]; mice, 5, 12 and 35 MBq/kg): no significant changes | single-cell necrosis/apoptosis of crypt epithelial cells in pyloric glands of the stomach, duodenum, jejunum ([1]; mice, 5-35 MBq/kg, day 1): dose-dependent increase | tingible body macrophages in white pulp of the spleen and lymphoid follicles of mesenteric lymph nodes ([1]; mice, 5-35 MBq/kg, day 1): dose-dependent increase | incidence of increased single-cell necrosis/apoptosis in striatal epithelial and serous cells of the salivary gland ([1]; mice, 12 MBq/kg, day 1): 1/10 | incidence of atrophy of the seminal vesicles [1, 6]: 1/10 | incidence of intraperitoneal mass [1, 6]: 1/10 | incidence of cortical lymphopenia in the thymus ([1]; mice, 35 MBq/kg, day 1): 2/10 | incidence of decrease in bone marrow cells ([1]; mice, 35 MBq/kg, day 1): 9/10 | incidence of increased single-cell necrosis/apoptosis in striatal epithelial and serous cells of the salivary gland ([1]; mice, 35 MBq/kg, day 1): 7/10 | incidence of mild localized hepatocellular necrosis in the liver ([1]; mice, 35 MBq/kg, considered a spontaneously occurring lesion): 1/10 | degenerative changes in salivary glands, stomach, duodenum, jejunum, spleen, mesenteric lymph nodes, bone marrow, thymus ([1]; mice, day 14 post-administration): not observed | time of peak kidney uptake post-administration ([2]; ICR mice, 5 MBq/kg i.v.): 6 h | time of peak thyroid gland uptake ([2]; ICR mice, 5 MBq/kg i.v.): 3 h | cumulative fecal excretion ([2]; ICR mice, 5 MBq/kg i.v., 6 h): 3.03 ± 1.90 %ID | cumulative urinary excretion ([2]; ICR mice, 5 MBq/kg i.v., 6 h): 4.85 ± 1.76 %ID | cumulative fecal excretion ([2]; ICR mice, 5 MBq/kg i.v., 24 h): 24.07 ± 8.54 %ID | cumulative urinary excretion ([2]; ICR mice, 5 MBq/kg i.v., 24 h): 18.89 ± 4.57 %ID | uptake in the thyroid ([2]; mice, 3 h post-administration): 51 %ID/g | metabolites in blood samples (TLC) [3]: no metabolites were detected | LDH levels ([4]; cynomolgus monkeys, 9 MBq/kg): elevated in both monkeys | renal function or electrolyte levels ([4]; cynomolgus monkeys, 9 MBq/kg): No significant changes | monkeys with a mild increase in amylase ([4]; cynomolgus monkeys, 9 MBq/kg, 24 h post-administration): 1/2 | ALB ([4]; 1 hr): 2.5 ± 0.4 g/dL | ALP ([4]; 1 hr): 835 ± 173.6 IU/L | ALT ([4]; 1 hr): 11.3 ± 1.8 IU/L | AMY ([4]; 1 hr): 291 ± 62.2 IU/L | AST ([4]; 1 hr): 13.3 ± 4.6 IU/L | BUN ([4]; 1 hr): 24.8 ± 2.5 mg/dL | CK ([4]; 1 hr): 496 ± 321.4 IU/L | CRE ([4]; 1 hr): 0.5 ± 0.2 mg/dL | K ([4]; 1 hr): 4.3 ± 0.2 mEq/L | LDH ([4]; 1 hr): 231 ± 27.9 IU/L | Na ([4]; 1 hr): 140 ± 2.8 mEq/L | TBIL ([4]; 1 hr): 0.3 ± 0.1 mg/dL | TCHO ([4]; 1 hr): 84 ± 24 mg/dL | TG ([4]; 1 hr): 25.5 ± 0.7 mg/dL | TP ([4]; 1 hr): 3.6 ± 0.4 g/dL | γ-GTP ([4]; 1 hr): 61.8 ± 8.1 IU/L | GLU ([4]; 1 hr, suggests contamination from the infusion fluid): 309 ± 177 mg/dL | ALB ([4]; 3 hrs): 2.5 ± 0.1 g/dL | ALP ([4]; 3 hrs): 890 ± 47.4 IU/L | ALT ([4]; 3 hrs): 12 ± 2.8 IU/L | AMY ([4]; 3 hrs): 342 ± 38.2 IU/L | BUN ([4]; 3 hrs): 27 ± 1.4 mg/dL | CK ([4]; 3 hrs): 522 ± 101.8 IU/L | CRE ([4]; 3 hrs): 0.75 ± 0.21 mg/dL | GLU ([4]; 3 hrs): 62 ± 56.6 mg/dL | K ([4]; 3 hrs): 4.9 ± 0.4 mEq/L | LDH ([4]; 3 hrs): 255 ± 4.9 IU/L | Na ([4]; 3 hrs): 143 ± 0 mEq/L | TBIL ([4]; 3 hrs): 0.3 ± 0.0 mg/dL | TCHO ([4]; 3 hrs): 91 ± 17 mg/dL | TG ([4]; 3 hrs): 28 ± 4.2 mg/dL | TP ([4]; 3 hrs): 3.7 ± 0.1 g/dL | γ-GTP ([4]; 3 hrs): 66.5 ± 19.1 IU/L | ALB ([4]; 24 hrs): 2.7 ± 0 g/dL | ALP ([4]; 24 hrs): 768 ± 34.4 IU/L | ALT ([4]; 24 hrs): 24.8 ± 21 IU/L | AMY ([4]; 24 hrs): 565 ± 197 IU/L | BUN ([4]; 24 hrs): 35.7 ± 2.4 mg/dL | CK ([4]; 24 hrs): 713 ± 293.9 IU/L | CRE ([4]; 24 hrs): 0.7 ± 0.0 mg/dL | GLU ([4]; 24 hrs): 77.7 ± 1.4 mg/dL | K ([4]; 24 hrs): 4 ± 0.2 mEq/L | Na ([4]; 24 hrs): 146 ± 3.1 mEq/L | TBIL ([4]; 24 hrs): 0.7 ± 0.3 mg/dL | TCHO ([4]; 24 hrs): 90.7 ± 0.5 mg/dL | TG ([4]; 24 hrs): 28.7 ± 4.7 mg/dL | TP ([4]; 24 hrs): 4.2 ± 0.4 g/dL | γ-GTP ([4]; 24 hrs): 65 ± 17.9 IU/L | AST [4, 7]: 38.7 ± 19.3 IU/L | LDH [4, 7]: 471 ± 30.2 IU/L | kidney histology [5]: regenerated tubules were observed
